Patent US20080188461A1, “Compositions and methods for detecting, preventing and treating seizures and seizure related disorders” (Regents of the University of Michigan, priority 2007, published 2008)

Test system: seizures
Test: Reduction in the number of seizures in individuals with multiple daily seizures treated with rapamycin
Type: in vivo, human
Settings: up to 7 mg/day rapamycin in combination with an anti-epileptic drug regimen, treatment 31-32 months
Procedure: In particular, 14 individuals experiencing multiple daily seizures (4 males with diagnosed TSC, 5 females with diagnosed TSC, 1 person with diagnosed Lennox-Gastaut Syndrome, and 4 females with diagnosed Lennox-Gastaut Syndrome) between the ages of 3-18 were administered rapamycin in combination with an anti-epileptic drug regimen. […] Each individual received between up to 7 mg/day of rapamycin. […] The duration of treatment was between 31 and 32 months.

## CO[C@H]1C[C@@H]2CC[C@@H](C)[C@@](O)(O2)C(=O)C(=O)N2CCCC[C@H]2C(=O)O[C@H]([C@H](C)C[C@@H]2CC[C@@H](O)[C@H](OC)C2)CC(=O)[C@H](C)/C=C(\C)[C@@H](O)[C@@H](OC)C(=O)[C@H](C)C[C@H](C)/C=C/C=C/C=C/1C [rapamycin, Rapamycin]
2 of the individuals diagnosed with TSC
  reduction in seizures: greater than 90%
3 of the individuals diagnosed with Lennox-Gastaut Syndrome
  reduction in seizures: greater than 90%
5 of the individuals diagnosed with Lennox-Gastaut Syndrome
  reduction in seizures: greater than 50%
5 of the individuals diagnosed with TSC
  reduction in seizures: greater than 50%
